The values below are quoted from earlier work in US11357752B2, “Carolacton and derivatives thereof for use in the treatment of cell proliferation disorders” (Helmholtz-Zentrum für Infektionsforschung GmbH, priority 2017, dated 2022).

The structures appear in SMILES notation. pIC50: −log10 of the molar value.

The series relates to MTHFD1 or MTHFD2. Conditions: prior-art inhibitor, poor activity; cited from earlier work.

In general, pIC50 refers to the IC50 on a negative log10 scale, so that one unit is a factor of ten. Turning to `Nc1nc2c(c(=O)[nH]1)N1C(=O)N(c3ccc(C(=O)N[C@@H](CCC(=O)O)C(=O)O)cc3)CC1CN2` (stereo partly shown) [LY345899], the negative-log IC50 (pIC50) was 3.89.
